# Measurements taken from patent US10329243B2, “Biphenyl derivative and uses thereof” (XI'AN LIBANG PHARMACEUTICAL CO., LTD, priority 2015, dated 2019).
# Assays:
# Assay type in all cases: in vivo, SD rats
# [1] = tested on: rats with permanent cerebral ischemia injury; test: Relative infarct volume (TTC, imageJ), permanent cerebral ischemia model; conditions: 40 mg/kg intravenously 30 min before insertion of thread and 12 h after embolism, 24 h after the embolism
# Protocol: (§1) Rats were intraperitoneally injected with 10% chloral hydrate 350 mg/kg after anesthesia and opened up at the center of the neck in accordance with the Zea Longa modified method. The right common carotid artery was separated, and the right external carotid artery branches was ligated. A small opening was made at the distal end of the external carotid artery, and a previously prepared thread was inserted through the common carotid artery and the external carotid artery bifurcation into the internal carotid artery, till the anterior end of the middle cerebral artery, with an immersed depth of 18 to 19 mm. The thread was then secured, and the wound was sutured layer by layer. After the operation, the rats were placed in a clean incubator to wake up. […] The sham operation group, the permanent cerebral ischemia model group, and the Example groups were prepared strictly according to the requirements of the cerebral ischemic reperfusion model, while in the sham operation group the thread was put only into the external carotid artery. The animals were allowed to eat and drink freely after waking up. The sham operation group, the permanent cerebral ischemia model group, and the Example groups were administered intravenously the aqueous solution of the biphenyl derivatives in PEG400 at 40 mg/kg (40 mg/kg means that 40 mg of the test compound per kg of the body weight of rats) 30 min before insertion of thread and 12 h after embolism, respectively. The sham operation group and the permanent cerebral ischemia model group were injected with the same amount of blank PEG400 aqueous solution at the same time point.
# (§2) 24 hours after the embolism, 8 rats in each group were sacrificed by decapitation, the brain was removed, rinsed with PBS (pH 7.4) at −20°i for 20 min, evenly sliced (with a thickness of 2 mm), stained in a 2% TTC solution at 37°% in the dark for 30 min, fixed in 10% formalin for 24 h, and photographs were taken to analyze the infarct volume. A mixture of femoral arterial and venous blood was drawn from another 8 rats in each group under anesthesia, placed in a low temperature centrifuge at 4° C., centrifuged at 3500 r/min for 20 min, and the supernatant was stored in a refrigerator at −20° C. ready for SOD and MDA detection. After the blood was drawn, a perfusion needle was insert through the apex to the ascending aorta, and saline at 4° C. was rapid infused until the effluent became clear, followed by 4% paraformaldehyde phosphate buffer perfusion for fixation; the brain was removed by craniotomy, and brain tissues 2 mm in front of and behind the optic chiasma were taken and fixed, dehydrated, rendered transparent, impregnated in wax, and embedded. Brain continuous coronary tissue pathological sections were consecutively cut for later use. The remaining 8 rats in each group were sacrificed, brains were removed, the ischemic brain hemispheres were immediately taken on an ice tray, and 10% brain tissue homogenate was prepared for the detection of IL-1β and TNF-α.
# (§3) The infarct area in each brain section was analyzed and quantified by the imageJ image software, and the ratio of cerebral infarction volume in the overall brain volume was calculated.
# SOD [2] = test: SOD determination, permanent cerebral ischemia model; conditions: permanent cerebral ischemia model rats; 40 mg/kg intravenously; serum, 24 h after the embolism
# Protocol: as §1, §2
# (§4) SOD and MDA were determined strictly in accordance with instructions of the kit.
# IL-1β [3] = test: Determination of IL-1β in brain tissue homogenate, permanent cerebral ischemia model; conditions: permanent cerebral ischemia model rats; 40 mg/kg intravenously; 10% brain tissue homogenate, 24 h after the embolism
# Protocol: as §1, §2
# (§5) Brain tissue homogenate was hypothermally centrifuged at 3000 rpm for 15 min, the supernatant was taken, and IL-1β and TNF-α were determined in strict accordance with instructions of the kits.
# IL-1β [4] = test: Determination of IL-1β in brain tissue homogenate, cerebral ischemic reperfusion MCAO model; conditions: ischemic reperfusion MCAO rats; 40 mg/kg intravenously; 10% brain tissue homogenate, 24 h after reperfusion
# Protocol: as §1, with “group, the ischemic reperfusion group, and” for “group, the permanent cerebral ischemia model group, and”, “waking up. After 2 h, the thread was pulled out to achieve reperfusion. The sham” for “waking up. The sham”, “min before reperfusion and 12” for “min before insertion of thread and 12”, “h after reperfusion, respectively. The” for “h after embolism, respectively. The”, “and the ischemic reperfusion group were” for “and the permanent cerebral ischemia model group were”
# as §2, with “reperfusion,” for “the embolism,”, “−20° i” for “−20°i”
# as §5
# [5] = tested on: rats with cerebral ischemic reperfusion injury; test: Relative infarct volume (TTC, imageJ), cerebral ischemic reperfusion MCAO model; conditions: ischemic reperfusion MCAO rats; 40 mg/kg intravenously 30 min before and 12 h after reperfusion; 24 h after reperfusion
# Protocol: as §1, with “group, the ischemic reperfusion group, and” for “group, the permanent cerebral ischemia model group, and”, “waking up. After 2 h, the thread was pulled out to achieve reperfusion. The sham” for “waking up. The sham”, “min before reperfusion and 12” for “min before insertion of thread and 12”, “h after reperfusion, respectively. The” for “h after embolism, respectively. The”, “and the ischemic reperfusion group were” for “and the permanent cerebral ischemia model group were”
# as §2, with “reperfusion,” for “the embolism,”, “−20° i” for “−20°i”
# as §3
# TNF-α [6] = test: Determination of TNF-α in brain tissue homogenate, permanent cerebral ischemia model; conditions: permanent cerebral ischemia model rats; 40 mg/kg intravenously; 10% brain tissue homogenate, 24 h after the embolism
# Protocol: as §1, §2, §5
# TNF-α [7] = test: Determination of TNF-α in brain tissue homogenate, cerebral ischemic reperfusion MCAO model; conditions: ischemic reperfusion MCAO rats; 40 mg/kg intravenously; 10% brain tissue homogenate, 24 h after reperfusion
# Protocol: as §1, with “group, the ischemic reperfusion group, and” for “group, the permanent cerebral ischemia model group, and”, “waking up. After 2 h, the thread was pulled out to achieve reperfusion. The sham” for “waking up. The sham”, “min before reperfusion and 12” for “min before insertion of thread and 12”, “h after reperfusion, respectively. The” for “h after embolism, respectively. The”, “and the ischemic reperfusion group were” for “and the permanent cerebral ischemia model group were”
# as §2, with “reperfusion,” for “the embolism,”, “−20° i” for “−20°i”
# as §5
# SOD [8] = test: SOD determination, cerebral ischemic reperfusion MCAO model; conditions: ischemic reperfusion MCAO rats; 40 mg/kg intravenously 30 min before and 12 h after reperfusion; serum, 24 h after reperfusion
# Protocol: as §1, with “group, the ischemic reperfusion group, and” for “group, the permanent cerebral ischemia model group, and”, “waking up. After 2 h, the thread was pulled out to achieve reperfusion. The sham” for “waking up. The sham”, “min before reperfusion and 12” for “min before insertion of thread and 12”, “h after reperfusion, respectively. The” for “h after embolism, respectively. The”, “and the ischemic reperfusion group were” for “and the permanent cerebral ischemia model group were”
# as §2, with “reperfusion,” for “the embolism,”, “−20° i” for “−20°i”
# as §4
SMILES,Relative Brain infarction volume (%) [1],SOD ACTIVITY (U/mL) (SOD [2]),IL-1β content (IL-1β [3]),IL-1β content (IL-1β [4]),Relative Brain infarction volume (%) [5],TNF-α content (TNF-α [6]),TNF-α content (TNF-α [7]),SOD ACTIVITY (U/mL) (SOD [8])
"CC(C)c1cc(-c2cc(C(C)C)c(C(=O)O)c(C(C)C)c2)cc(C(C)C)c1O [Example 8 group, 4′-hydroxy-3,3′,5,5′-tetraisopropylbiphenyl-4-carboxylic acid]",29.74 ± 3.13 %,96.90 ± 3.69 U/mL,0.65 ± 0.08 ng/mL,0.64 ± 0.14 ng/mL,25.83 ± 2.38 %,4.39 ± 0.73 ng/mL,4.35 ± 0.46 ng/mL,96.09 ± 3.33 U/mL
CC(C)c1cc(-c2cc(C(C)C)c(OC=O)c(C(C)C)c2)cc(C(C)C)c1O [Example 10 group],26.46 ± 4.52 %,94.08 ± 2.83 U/mL,0.66 ± 0.06 ng/mL,0.67 ± 0.05 ng/mL,23.91 ± 5.44 %,5.05 ± 0.54 ng/mL,4.68 ± 0.61 ng/mL,95.16 ± 3.88 U/mL
"CC(C)c1cc(-c2cc(C(C)C)c(OC(=O)C(N)C(C)C)c(C(C)C)c2)cc(C(C)C)c1O (centres unmarked) [Example 11 group, 4′-hydroxy-3,3′,5,5′-tetraisopropylbiphenyl-2-amino-3-methylbutyrate]",28.98 ± 5.24 %,95.76 ± 3.93 U/mL,0.76 ± 0.04 ng/mL,0.71 ± 0.07 ng/mL,23.59 ± 4.11 %,5.16 ± 0.43 ng/mL,5.31 ± 0.51 ng/mL,96.71 ± 4.29 U/mL
"CC(=O)OC(C)Oc1c(C(C)C)cc(-c2cc(C(C)C)c(O)c(C(C)C)c2)cc1C(C)C (centres unmarked) [Example 12 group, Ethyl 1-(4′-hydroxy-3,3′,5,5′-tetraisopropylbiphenyl-4-oxo)acetate]",31.79 ± 5.94 %,91.25 ± 3.84 U/mL,0.75 ± 0.04 ng/mL,0.74 ± 0.06 ng/mL,25.54 ± 3.29 %,5.38 ± 0.59 ng/mL,4.95 ± 0.67 ng/mL,92.39 ± 5.27 U/mL
